What was measured:
SLY (hemolysin) [1] = target: T1, SLY (hemolysin) (Streptococcus suis, UniProt Q55996); experiment: biochemical
SLY (hemolysin) [2] = target: T1, SLY (hemolysin); experiment: biochemical; conditions: read-out: % inhibition at 16 μg/mL

T1 sequence (Q55996 28-497 limits assumed): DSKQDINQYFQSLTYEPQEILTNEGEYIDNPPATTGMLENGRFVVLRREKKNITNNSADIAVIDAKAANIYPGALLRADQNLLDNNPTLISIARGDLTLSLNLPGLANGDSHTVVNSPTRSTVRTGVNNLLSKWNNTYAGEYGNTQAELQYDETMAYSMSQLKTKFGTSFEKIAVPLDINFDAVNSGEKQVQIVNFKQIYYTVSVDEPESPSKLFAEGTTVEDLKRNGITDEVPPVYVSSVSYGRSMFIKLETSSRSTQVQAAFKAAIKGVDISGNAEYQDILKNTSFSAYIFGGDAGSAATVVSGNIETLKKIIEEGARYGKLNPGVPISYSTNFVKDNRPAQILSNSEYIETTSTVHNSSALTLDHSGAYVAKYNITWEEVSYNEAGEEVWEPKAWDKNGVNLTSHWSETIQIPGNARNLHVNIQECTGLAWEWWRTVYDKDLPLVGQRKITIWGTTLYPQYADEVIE

**Q.** What does the source list for `Cc1ccc([C@@H]2O[C@H](CO)[C@@H](O)[C@H](O)[C@H]2O)cc1Cc1ccc(-c2ccc(F)cc2)s1` [canagliflozin]?
**A.** Kd (SLY (hemolysin) [1]): 900 nM; inhibition at 16 µg/mL (SLY (hemolysin) [2]): 76%

Source: PMC10487456, “Canagliflozin Inhibited the Activity of Hemolysin and Reduced the Inflammatory Response Caused by Streptococcus suis” (International Journal of Molecular Sciences, 2023)
